# Values quoted from earlier work, collected in patent publication US10603382B2, “Ophthalmic composition” (Johnson & Johnson Consumer Inc., priority 2014, dated 2020).
# Conditions: Merck Index, Twelfth Edition
row,SMILES,Solubility (g/100 ml water at 25° C.)
1,O=C(O)CCCC(=O)O [Glutaric acid],63.9 g/100 ml
2,O=C(O)/C=C/C(=O)O [Fumaric acid],0.63 g/100 ml
3,O=C(O)/C=C\C(=O)O [Maleic acid],78 g/100 ml
